{
  "source": "paper PMC3849007",
  "about": "(Journal of Experimental & Clinical Cancer Research : CR, 2013)",
  "key": {"[1]": {"system": "anaphase bridges in BJ-EHLT fibroblasts", "assay_type": "cell-based", "conditions": "0.5 μM, 24 hrs", "excerpt": "Anaphase bridges were scored by counting 400 nuclei per sample in triplicate. Histograms show the fold induction in treated versus untreated samples. Right panels show representative images of anaphase bridges in the treated samples at 63× magnification. Histograms show the mean of three independent experiments. Error bars indicate ± SD. (*P < 0.05).\nAs a result of chromosome ends fusion consequent to telomere damage, chromatin bridges are occasionally observed between daughter cells after mitosis (also called anaphase bridges)."}, "[2]": {"system": "anaesthetised guinea pig", "experiment": "Cardiovascular effects in anaesthetised guinea pig", "assay_type": "in vivo", "conditions": "escalating iv doses 0.25, 0.5, 1 mg/kg, 60 min apart", "procedure": "After anaesthesia with approximately 40 to 60 mg/kg (i.p.) sodium pentobarbitone, a jugular vein was cannulated for administration of the vehicle or test substance. Arterial blood pressure (systolic, diastolic and mean) was measured via a catheter inserted into the carotid artery, heart rate was derived electronically from the pressure waveform and a sample of arterial blood determined blood gases (PO2 and PCO2), O2 saturation, standard bicarbonate (HCO3), pH and base excess before the start of the experiment. Electrocardiogram (ECG) limb electrodes recorded the standard lead II configuration and QTcB interval (calculated as QTcB = QT/(√RR)). The animal was allowed to stabilise after completion of the surgical preparation for a period of at least 15 min. Then, after a further 10 min period of continuous recording of ECG and haemodynamic variables, the test substance or vehicle was administered intravenously as 3 iv infusions with each administration separated by 60 min.\nSeveral limitations exist in the use of mouse and rat models for the study of cardiotoxic effects in pharmacology, which regard differences in myocardial function compared to the human heart. […]"}, "[3]": {"system": "telomere aberrations in BJ-EHLT fibroblasts", "experiment": "Telomere FISH on metaphase spreads", "assay_type": "cell-based, human", "conditions": "0.5 μM, 72 hrs", "procedure": "For metaphase chromosome preparation cells were treated with demecolcine (Sigma, Milan, Italy) 0.1 mg/ml for 4 h and then harvested and washed in 75 mM KCl for 5 min at 37°C. After centrifugation cells were fixed in MeOH/acetic acid 3:1 overnight and then spread on slides. Hybridization with rhodamine-coupled PNA was performed as described. For each sample 20 metaphases per slice on triplicate were scored. Images of the metaphases were captured with a 100 × objective."}},
  "data": [
    {"smiles": "Cc1cc2c3c([n+](C)c4ccc(F)cc4c3c1)-c1cc(F)ccc1N2C", "note": "[Compound 1, 3,11-Difluoro-6,8,13-trimethyl-8H-quino[4,3,2-kl]acridinium metho-sulfate]", "values": [
      {"measurement": "anaphase bridges frequency, fold induction vs untreated", "setting": "[1]", "result": "ten"},
      {"measurement": "effect on QTcB interval", "setting": "[2]; all doses, listed as RHPS4", "result": "marked and sustained increase in QTcB interval"},
      {"measurement": "effect on heart rate", "setting": "[2]; cumulative 1.75 mg/kg", "result": "dose-related decrease in heart rate"}
    ]},
    {"smiles": "CC(=O)Nc1ccc2c(c1)c1cccc3c1c([n+]2C)-c1ccccc1N3C", "note": "[Compound 3, 3-acetylamino-8,13-dimethyl-8H-quino[4,3,2-kl]-acridinium iodide]", "values": [
      {"measurement": "telomere aberrations (telomere doublets, sister telomere fusions)", "setting": "[3]", "result": "lower effect"}
    ]}
  ]
}
